Values quoted from earlier work as cited in patent publication US20240325292A1, “COMPOSITION AND METHODS OF TREATMENT USING TRANSDERMAL SUPPLEMENTATION” (Xygenyx Inc., priority 2023, published 2024).

Columns and labels:
rheumatoid arthritis = settings: arthritic subjects
[1] = as compared to α-tocopherol = 1.0
[2] = dietary intake in equal portions
[3] = as penetration enhancer
[4] = test system: markers of inflammation in the blood; settings: individuals with metabolic syndrome
[5] = in vivo
[6] = not given; remark: listed apart in the source
[7] = test system: wide dynamic range neurons in the ventroposterolateral nucleus of the thalamus; settings: in vivo
[8] = 400-500 IU, in combination with 10-20 mg β-carotene and 400-500 mg vitamin C

## C=C1CC/C=C(\C)CC[C@@H]2[C@@H]1CC2(C)C [β-caryophyllene]
Rheumatoid arthritis
  joint and lymph node swelling, leukocyte number: reduced swelling of joints and lymph nodes as well as the number of circulating and articular leukocytes

## Cc1c(O)cc2c(c1C)O[C@](C)(CCC[C@H](C)CCC[C@H](C)CCCC(C)C)CC2 [γ-tocopherol]
[1]
  relative biological activity: 0.1
[2]
  concentration in vivo relative to α-tocopherol: roughly 10%

## Cc1c(C)c2c(c(C)c1O)CC[C@@](C)(CCC[C@H](C)CCC[C@H](C)CCCC(C)C)O2 [α-tocopherol]
[8]
  progression of age-related macular degeneration: dramatically reduce the progression
  reduction in the development of age-related cataracts: 23%
800-900 IU/day
  functional health of sperm: improve functional health of sperm
1600-3200 IU/day
  blood plasma concentration of F2-isoprostane: significantly lower
Doses up to 400 IU/day
  reduction of risk of coronary disease: up to 34%
Doses up to 400 IU/day, controlled trials
  reduction of risk of developing neurodegenerative diseases (Alzheimer's Syndrome or dementia): ≤ 24%
[1]
  relative biological activity: 1.0

## CC12CCC(CC1)C(C)(C)O2 [eucalyptol, 1,8-epoxy-p-menthane]
[3]
  increase of transdermal drug uptake, factor: more than 10

## Cc1cc(O)c(C)c2c1O[C@](C)(CCC[C@H](C)CCC[C@H](C)CCCC(C)C)CC2 [β-tocopherol]
[1]
  relative biological activity: 0.5

## Cc1cc(O)cc2c1O[C@](C)(CCC[C@H](C)CCC[C@H](C)CCCC(C)C)CC2 [δ-tocopherol]
[1]
  relative biological activity: 0.03
[4]
  markers of inflammation in the blood: reduced markers of inflammation

## HGH: hormone comprising a peptide chain that is synthesized in the pituitary gland
[5]
  biological half-life: 10-20 minutes

## CC(C)[C@@H]1CC[C@@H](C)C[C@H]1O [Menthol]
[3]
  increase of transdermal drug uptake, factor: ≥ 10

## C/C(=C\CO)CCC[C@H](C)CCC[C@H](C)CCCC(C)C [phytol, Phytol]
[6]
  solubility in water: nearly insoluble in water

## CCCCCc1cc(O)c2c(c1)OC(C)(C)C1CCC(C)=CC21 (stereo not drawn) [THC, Δ-9-tetrahydrocannabinol]
[7]
  potency in mediating pain relative to morphine: ten times more powerful than morphine
